Experimental data published in ChEMBL document CHEMBL1134446, “Polyamine analogue antidiarrheals: a structure-activity study” (J Med Chem, 2001).
Values joined by “and” are separate entries in the source; they are usually repeats but may differ in a detail not shown here. Equal entries are not always repeated.

Legend:
[1] = test system: Canis familiaris; test: Spermine Distribution in liver was determined after DESPM dosing of 6.0 mg/kg/day for 4.5 days in dog(cu dose-52.4) and sacrificed at 75 days PLD(cu dose-27 mg/kg); assay type: ADME, organism-based, Canis lupus familiaris; settings: in vivo, 1800 h
[2] = test system: Canis familiaris; test: Spermidine Distribution in liver was determined after DESPM dosing of 6.0 mg/kg/day for 4.5 days in dog(cu dose-52.4) and sacrificed at 75 days PLD(cu dose-27 mg/kg); assay type: ADME, organism-based, Canis lupus familiaris; settings: in vivo, 1800 h
[3] = test system: Rattus norvegicus; test: Percent reduction was determined by using the ratio of mean of treated animal to that of control animal at a dose of 4.7 mg/kg; assay type: functional
[4] = test system: Canis familiaris; test: Spermine Distribution in kidney was determined after DESPM dosing of 6.0 mg/kg/day for 4.5 days in dog(cu dose-52.4) and sacrificed at 75 days PLD(cu dose-27 mg/kg); assay type: ADME, organism-based, Canis lupus familiaris; settings: in vivo, 1800 h
[5] = test system: Rattus norvegicus; test: Percent reduction was determined by using the ratio of mean of treated animal to that of control animal at a dose of 14.3 mg/kg; assay type: functional
[6] = test system: Canis familiaris; test: Spermidine Distribution in kidney was determined after DESPM dosing of 4 mg/kg/day for 13 days in dog(cu dose-52.4) and sacrificed at 10 days PLD(cu dose-52 mg/kg); assay type: ADME, organism-based, Canis lupus familiaris; settings: in vivo, 240 h
[7] = test system: Canis familiaris; test: putrescine Distribution in kidney was determined after DESPM dosing of 6.0 mg/kg/day for 4.5 days in dog and sacrificed at 75 days PLD(cu dose-27 mg/kg); assay type: ADME, organism-based, Canis lupus familiaris; settings: in vivo, 1800 h
[8] = test system: Canis familiaris; test: Spermidine Distribution in liver was determined after DESPM dosing of 4 mg/kg/day for 13 days in dog(cu dose-52.4) and sacrificed at 75 days PLD(cu dose-52 mg/kg); assay type: ADME, organism-based, Canis lupus familiaris; settings: in vivo, 1800 h
[9] = test system: Canis familiaris; test: putrescine Distribution in liver was determined after DESPM dosing of 1.87 mg/kg/day for 28 days in dog(cu dose-52.4) and sacrificed at 10 days PLD(cu dose-52.4 mg/kg); assay type: ADME, organism-based, Canis lupus familiaris; settings: in vivo, 240 h
[10] = test system: Canis familiaris; test: MESPM/MEHSPH Distribution in kidney was determined after DESPM dosing of 8.0 mg/kg/day for 4.5 days in dog(cu dose-52.4) and sacrificed at 75 days PLD(cu dose-36 mg/kg); assay type: ADME, organism-based, Canis lupus familiaris; settings: in vivo, 1800 h
[11] = test system: Canis familiaris; test: Spermidine Distribution in liver was determined after DESPM dosing of 4 mg/kg/day for 13 days in dog(cu dose-52.4) and sacrificed at 10 days PLD(cu dose-52 mg/kg); assay type: ADME, organism-based, Canis lupus familiaris; settings: in vivo, 240 h
[12] = test system: Canis familiaris; test: putrescine Distribution in liver was determined after DEHSPM dosing of 2.0 mg/kg/day for 29 days in dog(cu dose-52.4) and sacrificed at 10 days PLD(cu dose-58 mg/kg); assay type: ADME, organism-based, Canis lupus familiaris; settings: in vivo, 240 h
[13] = test system: Canis familiaris; test: Distribution in kidney was determined after DESPM dosing of 8.0 mg/kg/day for 4.5 days in dog(cu dose-52.4) and sacrificed at 75 days PLD(cu dose-36 mg/kg); assay type: ADME, organism-based, Canis lupus familiaris; settings: in vivo, 1800 h
[14] = test system: Canis familiaris; test: Distribution in liver was determined after DESPM dosing of 8.0 mg/kg/day for 4.5 days in dog(cu dose-52.4) and sacrificed at 75 days PLD(cu dose-36 mg/kg); assay type: ADME, organism-based, Canis lupus familiaris; settings: in vivo, 1800 h
[15] = test system: Canis familiaris; test: Spermidine Distribution in kidney was determined after DEHSPM dosing of 2.0 mg/kg/day for 29 days in dog(cu dose-52.4) and sacrificed at 10 days PLD(cu dose-58 mg/kg); assay type: ADME, organism-based, Canis lupus familiaris; settings: in vivo, 240 h
[16] = test system: Canis familiaris; test: Distribution in liver was determined after DESPM dosing of 6.0 mg/kg/day for 4.5 days in dog(cu dose-52.4) and sacrificed at 10 days PLD(cu dose-27 mg/kg); assay type: ADME, organism-based, Canis lupus familiaris; settings: in vivo, 240 h
[17] = test system: Canis familiaris; test: MESPM/MEHSPH Distribution in liver was determined after DEHSPM dosing of 2.0 mg/kg/day for 29 days in dog(cu dose-52.4) and sacrificed at 10 days PLD(cu dose-22 mg/kg); assay type: ADME, organism-based, Canis lupus familiaris; settings: in vivo, 240 h
[18] = test system: Canis familiaris; test: Distribution in kidney was determined after DESPM dosing of 4 mg/kg/day for 13 days in dog(cu dose-52.4) and sacrificed at 75 days PLD(cu dose-52 mg/kg); assay type: ADME, organism-based, Canis lupus familiaris; settings: in vivo, 1800 h
[19] = test system: Canis familiaris; test: Distribution in kidney was determined after DESPM dosing of 4 mg/kg/day for 13 days in dog(cu dose-52.4) and sacrificed at 10 days PLD(cu dose-52 mg/kg); assay type: ADME, organism-based, Canis lupus familiaris; settings: in vivo, 240 h
[20] = test system: Canis familiaris; test: Spermine Distribution in liver was determined after DEHSPM dosing of 2.0 mg/kg/day for 29 days in dog(cu dose-52.4) and sacrificed at 10 days PLD(cu dose-22 mg/kg); assay type: ADME, organism-based, Canis lupus familiaris; settings: in vivo, 240 h
[21] = test system: Canis familiaris; test: HSPM Distribution in kidney was determined after DEHSPM dosing of 2.0 mg/kg/day for 29 days in dog(cu dose-52.4) and sacrificed at 10 days PLD(cu dose-22 mg/kg); assay type: ADME, organism-based, Canis lupus familiaris; settings: in vivo, 240 h
[22] = test system: Canis familiaris; test: Distribution in kidney was determined after DEHSPM dosing of 2.0 mg/kg/day for 29 days in dog(cu dose-52.4) and sacrificed at 10 days PLD(cu dose-58 mg/kg); assay type: ADME, organism-based, Canis lupus familiaris; settings: in vivo, 240 h

Question: With `CCNCCCNCCCCNCCCNCC` [BIS(ETHYL)SPERMINE] as the compound, how does the “Wet weight of tissue” value [1] read?
Answer: 992 nM/g

Question: And the “Wet weight of tissue” value [2]?
Answer: 244 nM/g

Question: And the Reduction [3]?
Answer: 37% and 60%

Question: And the “Wet weight of tissue” value [4]?
Answer: 584 nM/g

Question: What about the Reduction [5] of the same compound?
Answer: 66% and 92%

Question: What about the “Wet weight of tissue” value [6] of the same compound?
Answer: 82 nM/g

Question: What about the “Wet weight of tissue” value [7] of the same compound?
Answer: 8 nM/g

Question: What about the “Wet weight of tissue” value [8] of the same compound?
Answer: 264 nM/g

Question: What about the “Wet weight of tissue” value [9] of the same compound?
Answer: 86 nM/g

Question: What about the “Wet weight of tissue” value [10] of the same compound?
Answer: 0 nM/g

Question: What about the “Wet weight of tissue” value [11] of the same compound?
Answer: 176 nM/g

Question: `CCNCCCCNCCCCNCCCCNCC` [DIETHYLHOMOSPERMINE] was tested. Which “Wet weight of tissue” value [12] did it give?
Answer: 19 nM/g

Question: And the “Wet weight of tissue” value [13]?
Answer: 0 nM/g

Question: What about the “Wet weight of tissue” value [14] of the same compound?
Answer: 0 nM/g

Question: And the “Wet weight of tissue” value [15]?
Answer: 41 nM/g

Question: And the “Wet weight of tissue” value [16]?
Answer: 30 nM/g

Question: What about the “Wet weight of tissue” value [17] of the same compound?
Answer: 13 nM/g

Question: What about the “Wet weight of tissue” value [18] of the same compound?
Answer: 0 nM/g

Question: What about the “Wet weight of tissue” value [19] of the same compound?
Answer: 46 nM/g

Question: And the “Wet weight of tissue” value [20]?
Answer: 386 nM/g

Question: What about the “Wet weight of tissue” value [21] of the same compound?
Answer: 43 nM/g

Question: What about the “Wet weight of tissue” value [22] of the same compound?
Answer: 98 nM/g
